The values below come from ChEMBL document CHEMBL1134896, “Antileishmanial dinitroaniline sulfonamides with activity against parasite tubulin” (Bioorg Med Chem Lett, 2002).

Assay [1] deals with Leishmania donovani. Briefly: Inhibitory activity against Leishmania donovani amastigotes. Format: functional, organism-based.
A further assay deals with Leishmania sp. Put plainly: Percentage inhibition against Leishmania tubulin in vitro was determined at 20 uM. Format: functional.
For assay [2], the system named is Leishmania donovani. Put plainly: Inhibitory activity against Leishmania donovani promastigotes. It counts as functional, organism-based.

With `CCCNS(=O)(=O)c1cc([N+](=O)[O-])c(N(CCC)CCC)c([N+](=O)[O-])c1`, the results for the IC50 in the assay with Leishmania donovani [1] and in the assay with Leishmania donovani [2] were 56.9 µM and 56 µM, respectively. Moreover, the inhibition – broadly, the relative decrease from the control value, in per cent – at 20 µM in the assay with Leishmania sp. is 97%.
For `CCCNc1c([N+](=O)[O-])cc(S(N)(=O)=O)cc1[N+](=O)[O-]`, the inhibition at 20 µM with Leishmania sp. is 43%. The IC50 (in general, the concentration that inhibits the measured activity by half) in the assay with Leishmania donovani [2] is 67 µM.
In the same order, the values of `CCCN(CCC)c1c([N+](=O)[O-])cc(C(N)=O)cc1[N+](=O)[O-]` are 34% and 76.4 µM.
On to `CCCN(CCC)c1c([N+](=O)[O-])cc(S(=O)(=O)Nc2ccccc2)cc1[N+](=O)[O-]`, for which the IC50 in the assay with Leishmania donovani [1] is 5.41 µM; in the assay with Leishmania donovani [2], 14.7 µM. Further, the inhibition at 20 µM in the assay with Leishmania sp. was found to be 108%.
Take `NS(=O)(=O)c1cc([N+](=O)[O-])c(N2CCOCC2)c([N+](=O)[O-])c1`: the inhibition at 20 µM in the assay on Leishmania sp. is 21%. Also, the IC50 in the assay on Leishmania donovani [2] is greater than 100 µM.
`CCCCN(CCCC)c1c([N+](=O)[O-])cc(S(N)(=O)=O)cc1[N+](=O)[O-]`: the IC50 was 20.1 µM in the assay on Leishmania donovani [1] and 17.8 µM in the assay with Leishmania donovani [2]. Further, the inhibition at 20 µM in the assay on Leishmania sp. was determined as 89%.
In the same order, the values of `CCCCCCN(CCCCCC)c1c([N+](=O)[O-])cc(S(N)(=O)=O)cc1[N+](=O)[O-]` are 11.7 µM, 12.2 µM and 48%.
Take `CCCN(CCC)c1c([N+](=O)[O-])cc(C#N)cc1[N+](=O)[O-]`: the inhibition at 20 µM in the assay on Leishmania sp. is 25%. The IC50 with Leishmania donovani [2] was greater than 100 µM.
`CCCN(CCC)c1ccc(S(N)(=O)=O)cc1[N+](=O)[O-]`: the inhibition at 20 µM in the assay with Leishmania sp. was found to be 19%. This molecule had an IC50 in the assay with Leishmania donovani [2] of 89.8 µM.
Take `CCN(CC)c1c([N+](=O)[O-])cc(S(N)(=O)=O)cc1[N+](=O)[O-]`: the inhibition at 20 µM in the assay with Leishmania sp. turned out to be 58%. In the assay with Leishmania donovani [2], it took 69.3 µM to reach half-maximal inhibition (IC50).
As to `CCCN(CCC)c1c([N+](=O)[O-])cc(C(=N)NO)cc1[N+](=O)[O-]`, the inhibition at 20 µM with Leishmania sp. turned out to be 35%. The same molecule had an IC50 in the assay with Leishmania donovani [2] greater than 100 µM.
Regarding `CCCCCN(CCCCC)c1c([N+](=O)[O-])cc(S(N)(=O)=O)cc1[N+](=O)[O-]`, the IC50 was found to be 9 µM with Leishmania donovani [1] and 8.02 µM with Leishmania donovani [2]. Moreover, in the assay with Leishmania sp., the inhibition at 20 µM worked out at 95%.
As for `NS(=O)(=O)c1cc([N+](=O)[O-])c(N2CCCC2)c([N+](=O)[O-])c1`, in the assay on Leishmania sp., the inhibition at 20 µM turned out to be 57%. The IC50 with Leishmania donovani [2] turned out to be 97.1 µM.
Consider `CCCN(CCC)c1c([N+](=O)[O-])cc(S(N)(=O)=O)cc1[N+](=O)[O-]` [ORYZALIN], for which the IC50 in the assay on Leishmania donovani [1] is 72.5 µM; with Leishmania donovani [2], 44.1 µM. Moreover, the inhibition at 20 µM with Leishmania sp. turned out to be 54%.
As to `N=C(N)c1ccc(OCCCCCOc2ccc(C(=N)N)cc2)cc1` [PENTAMIDINE], the IC50 in the assay with Leishmania donovani [1] amounted to 2 µM; in the assay with Leishmania donovani [2], 1.61 µM.
